According to patent US5352587A, “Compositions and methods for the synthesis of natriuretic protein receptor B and methods of use” (Genentech, Inc., priority 1991, dated 1994):
Each block holds one compound with its values, some of them ahead of it. Ends that are not written are not given here.

Legend:
membrane GC = details: literature refs 14, 15; cited from earlier work
[1] = system: active site of protein kinases; details: literature refs 12, 13; cited from earlier work
[2] = target: 130 kDa ANP receptor-GC from adrenal glomerulosa; details: literature refs 10, 11; cited from earlier work
soluble NPRB = assay: Binding to soluble NPRB extracellular domain (1-433) in concentrated conditioned medium; parameters: species or system human
Method: Soluble extracellular domain of NPRB was engineered by introducing a translation termination codon at position 434 to produce the 1-433 fragment of the NPRB sequence illustrated in FIG. 1. A stable cell line was developed in 293 cells as described for 293NPRBDKC, and clones were screened by binding of ^125 lBNP to receptor in condition medium. Control 293 cells or the stable cell line 293BCF.15 (NPRB cell free) were plated 24 hours prior to the addition of serum free conditioned medium. Medium was left on the cells for 72 hours then collected for analysis of the […] synthesized. The media was vacuum filtered through a […] filter (Millipore Corp) then concentrated 8-fold by ultrafiltration on an Amicon Corp centriprep YM30 membrane. A 0.5 ml sample of concentrated conditioned media was incubated for one hour in the presence of 0.25 mCi of ^125 l-pBNP(26) (2462 Ci/mmole) with (background binding) or without (total binding) 1.2 mM pBNP(26). A 1.0 ml sample of activated charcoal solution (Fuller et al. J. Biol. Chem. 264, 14179-14184 [1989]) was added to absorb unbound label and recovered by centrifugation. The supernatant (1.4 ml) was removed for determination of ^125 l-pBNP bound to receptor by gamma counting. Specific binding was calculated from the difference between total binding minus background binding. […]

[3] = target: T1, NPRB lacking its kinase and guanylyl cyclase domains (BDKC) (Homo sapiens, UniProt P20594); assay: Scatchard analysis of binding to 293 cells expressing NPRB less the kinase and cyclase domains (BDKC); details: two hours at room temperature (21° C.), LIGAND program, read-out: dissociation constant (Kd)
T1 construct: expressed in transfected cells
T1 sequence (P20594 23-501): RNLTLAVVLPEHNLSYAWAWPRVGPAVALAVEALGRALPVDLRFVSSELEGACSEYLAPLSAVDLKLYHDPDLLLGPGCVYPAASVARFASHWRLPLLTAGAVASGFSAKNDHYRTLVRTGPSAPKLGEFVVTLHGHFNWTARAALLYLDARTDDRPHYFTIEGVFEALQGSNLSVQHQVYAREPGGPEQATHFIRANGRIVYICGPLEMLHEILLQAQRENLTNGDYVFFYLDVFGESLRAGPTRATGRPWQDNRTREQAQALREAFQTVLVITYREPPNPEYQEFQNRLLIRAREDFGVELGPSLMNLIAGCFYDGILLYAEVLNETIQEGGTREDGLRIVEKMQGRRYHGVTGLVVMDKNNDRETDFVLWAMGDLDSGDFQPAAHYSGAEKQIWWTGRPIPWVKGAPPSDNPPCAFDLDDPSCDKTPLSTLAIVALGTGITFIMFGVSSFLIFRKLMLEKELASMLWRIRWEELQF
Source text: Scatchard analysis was used to determine the binding affinities of the natriuretic peptides for NPRB. An expression vector using pRK was constructed such that the NPRB lacked its kinase and guanylyl cyclase domains. This mutation was effected by introduction of a termination codon at condo 480 of the mature NPRB protein. A recombinant cell line expressing NPRB less the kinase and cyclase domains (BDKC) was developed by calcium phosphate transfection of 293 cells as described above. These stable cell lines were screened for expression of BDKC by binding of porcine BNP which contained 26 amino acids (^125 l-pBNP[26]). […] Binding was allowed to proceed to equilibrium by incubation for two hours at room temperature (21° C.), the bound ^125 l-pBNP(26) was separated from unbound by centrifugation for 7 minutes at 4° C. The supernatant was aspirated and the cell pellet was counted in a gamma counter for ^125 l quantitation. Background binding was subtracted from total binding to give specific binding and the specific binding vs. dose of ^125 l-pBNA data was analyzed by the LIGAND program of Munson and Rodbard (Analytical Biochemistry 107, 220-239 [1980]). The results shown are in FIG. 5.

Compound: Nc1ncnc2c1ncn2[C@@H]1O[C@H](COP(=O)(O)OP(=O)(O)OP(=O)(O)O)[C@@H](O)[C@H]1O [ATP]
effect on Vmax of membrane GC in response to ANP stimulation (membrane GC): increasing the Vmax of membrane GC in response to ANP stimulation

Compound: N=C(N)NC(=O)c1nc(Cl)c(N)nc1N [amiloride]
inhibition of ATP binding to the active site of protein kinases [1]: competitive inhibitor of ATP binding to the active site of protein kinases | effect on receptor conformation and Kd for ANP [2]: change in receptor conformation and a lowering of the Kd for ANP

Specific binding to soluble NPRB (soluble NPRB; 0.25 mCi ^125 l-pBNP(26), one hour, 8-fold concentrated conditioned medium): 31,837 cpm | Kd [3]: 0.0667 nM
Compound: ^125 l-pBNP(26): porcine BNP which contained 26 amino acids, ^125 l labelled (DSGCFGRRLDRIGSLSGLGCNVLRRY; ends and bridges not checked; also: 125I label, position not given here; UniProt P07634 106-131, looked up)
Specific binding due to the recombinant soluble receptor protein (difference from control 293 cells) (soluble NPRB; difference between soluble NPRB and control 293 cells): 29,177 cpm
